Test results taken from patent publication US12479877B2, “Methods for purifying steviol glycosides and uses of the same” (PureCircle Sdn. Bhd., priority 2010, dated 2025).
Values joined by “and” are separate entries in the source; they are usually repeats but may differ in a detail not shown here. Identical values can stand only once.

Experiments:
[1] = tested on: one experienced panelist; assay: Taste evaluation of Reb X against Reb A and Reb D, multi-sip and swallow taste method; assay type: in vivo, human
Method: The taste properties of a sample of Reb X were studied against Rebaudioside A (Reb A) and Rebaudioside D (Rb D) samples. Rb A was obtained from Cargill (lot #1040) and Reb-D was obtained from PureCircle (lot #11/3/08).
The samples were prepared at 500 ppm for sweetness evaluation by adding moisture compensated mass into a 100 mL sample of carbon-treated water and citric buffer solutions.
(§1) Citric buffer was prepared by mixing 1.171 g/L citric acid, 0.275 g/L sodium citrate and 0.185 g/L sodium benzoate with carbon-treated water, with a final pH of 3.22. The mixtures were moderately stirred at room temperature. The Reb X sample was then evaluated against the two control Reb A and Reb D samples in water and citric buffer at room temperature (RT) and at 4° C. in an ice bath by one experienced panelist for any tasting quality determinations using the controlled, multi-sip and swallow taste method shown below:
1. Take first sip (˜1.8 mL) of control and swallow. Wait for 15-25 sec, then take second sip of control and wait for 15-25 sec.
2. Take first sip of the experimental sample, wait for 15-25 sec, then take second sip. Compare to second sip of control.
3. Repeat steps #1 and #2 for the third and fourth sips of the control and experimental samples to confirm the initial finding.
The taste evaluation results of the Reb X samples against the control Reb A and Reb D samples at 500 ppm in citric buffer (CB) at 4° C. and RT are described in Table 4.

[2] = Solubility studies in carbon-treated water and citrate buffer; assay type: physicochemical
Method: as §1
The samples used to evaluate the taste properties in Example 2 were also used for solubility studies.

[3] = Solubility of 600 ppm Reb X stock solution in citric buffer; assay type: physicochemical; conditions: 0.06% (w/v) in citric buffer at up to 52° C. for ca. 15-20 minutes
Method: The isosweetness levels of Reb X in a citric buffer system at room temperature and 4° C. were evaluated. A 600 ppm stock solution of Reb X was prepared by adding a mass of 0.15 g into a 250 mL sample of citric buffer (CB) solution. The mixture was moderately stirred at warmer temperature (up to ca. 52° C.) on a heated stirrer for about 15-20 minutes and then cooled. The citric buffer was prepared by adding 1.6 g citric acid, 0.6 g potassium citrate and 0.253 g sodium benzoate in 1 L of carbon-treated water. The pH of the mixture was 3.1. […] The controls of 0.75%, 2%, 4%, 6%, 8%, 10% and 15% sucrose equivalence (SE) were also prepared by adding sugar (w/v) into the CB. The mixtures were moderately stirred and then ready for the isosweetness determination test. The Reb X samples were then evaluated against the control sugar samples in citric buffer at room temperature (RT) and 4° C. (in an ice bath) by one experienced taster for an isosweetness determination using the controlled, multi-sip and swallow taste method.
Despite the stronger mouthfeel or texture effect (syrupy, thicker) at ca. 15% sucrose, it was difficult to determine the isosweetness levels for at least 400 ppm of Reb X due to its thinner mouthfeel but broader and more impact sweetness temporal profile as well as its significant sweet lingering.

[4] = Beverage formulations: taste properties compared with Reb A; assay type: in vivo, human
[5] = tested on: semi-trained panel members; assay: Sensory comparison of Reb X and Reb A, iso-sweet samples at 8% sucrose equivalent; assay type: in vivo, human
Method: To compare the sensory attributes between Reb X and Reb A, iso-sweet samples having 8% sucrose equivalent sweetness were made with filtered water as shown in Table 8. An 8% sugar solution in water at room temperature was used as a control. An 8% sugar solution in the acidified solution was used as the control. The samples prepared with filtered water were evaluated by 34 semi-trained panel members at room temperature. The samples prepared with acidified water were evaluated by 23 semi-trained panel members at room temperature. Samples were given to the panel members sequentially and coded with triple digit numbers. The order of sample presentation was randomized to avoid order of presentation bias. Water and unsalted crackers were provided in order to cleanse the palate. The panel members were asked to rate different attributes including sweetness onset, total sweetness, rounded sweetness, bitterness, acidity, leafy note, licorice, astringency, mouthfeel, mouth coating, sweet lingering, and bitter lingering. Samples were rated on a scale of zero (0) to ten (10), with zero indicating immediate onset, no intensity, watery/low viscosity, or very sharp peak, and ten indicating very delayed onset, high intensity, thick/high viscosity, or very round peak. One-way single factor ANOVA was used to analyze sensory results, where α=0.05.

[6] = acidified water (250 ppm citric acid, pH 3.2), 23 panel members, FIG. 12

Estimated time to solubilize ([2]; 0.01% in carbon-treated water): 15 min
Estimated time to solubilize ([2]; 0.01% in citrate buffer): 25 min
Estimated time to solubilize ([2]; 0.02% in carbon-treated water): 25 min
Estimated time to solubilize ([2]; 0.02% in citrate buffer): 25 min
Estimated time to solubilize ([2]; 0.04% in carbon-treated water): 33 min
Estimated time to solubilize ([2]; 0.04% in citrate buffer): 35 min
Estimated time to solubilize ([2]; 0.05% in carbon-treated water): 39 min
Estimated time to solubilize ([2]; 0.05% in citrate buffer): 42 min
Estimated time to solubilize ([2]; 0.075% in carbon-treated water): 55 min
Estimated time to solubilize ([2]; 0.075% in citrate buffer): 55 min
Estimated time to solubilize ([2]; 0.10% in carbon-treated water): 106 min
Estimated time to solubilize ([2]; 0.10% in citrate buffer): 106 min
Estimated time to solubilize ([2]; 0.15% in carbon-treated water): Insoluble after 20 hours
Estimated time to solubilize ([2]; 0.15% in citrate buffer): Insoluble after 20 hours
Solubility and appearance [3]: very soluble and clear (colorless)
SMILES: C=C1C[C@@]23CCC4[C@](C)(C(=O)OC5OC(CO)C(O)C(OC6OC(CO)C(O)C(O)C6O)C5OC5OC(CO)C(O)C(O)C5O)CCC[C@@]4(C)[C@@H]2CCC1(OC1OC(CO)C(O)C(OC2OC(CO)C(O)C(O)C2O)C1OC1OC(CO)C(O)C(O)C1O)C3 (stereo partly drawn) [Reb X, (13-[2-O-β-D-glucopyranosyl-3-O-β-D-glucopyranosyl-β-D-glucopyranosyl)oxy] ent kaur-16-en-19-oic acid-[2-O-β-D-glucopyranosyl-3-O-β-D-glycopyranosyl) ester]
Taste quality at room temperature versus 4° C. ([1]; 500 ppm in citrate buffer): similar
Taste quality compared with Reb A and Reb D ([1]; 500 ppm in citrate buffer): much better than Reb A or Reb D
Sweet temporal profile and sweetness linger ([1]; 500 ppm in citrate buffer, compared with Reb A): fatty-like or broader sweet temporal profile and less sweetness linger than that of Reb A
Taste Properties ([1]; 500 ppm in citric buffer (pH 3.22), room temperature): Clean sweet taste. Broad and full sweetness profile. Moderate
Astringency, sweetness intense (depth) and bitterness notes ([1]; 500 ppm, citrate buffer system, compared with Reb A): did not have the astringency or sweetness intense (depth) and bitterness notes compared to that of the Reb A
Initial solubility test (comparative) ([2]; 500 ppm concentrations in citrate buffer): significantly greater solubility than that of Reb D and significantly less solubility than Reb A
Taste properties compared to Reb A drink ([4]; flavored zero caloric black tea drink, 250 ppm Reb X vs 250 ppm Reb A): much cleaner in finish with less sweetness linger and a more rounded overall sweetness profile
Reb X level closest in sweetness level to a 11.5 Brix high fructose corn syrup sweetened orange flavored sparkling beverage ([4]; zero caloric orange-flavored sparkling beverage base): 500 ppm and 550 ppm
Taste compared to Reb A-containing formulations ([4]; zero caloric orange-flavored sparkling beverage, Reb X 400 to 750 ppm in 50 ppm increments): significantly better than comparable Reb A-containing formulations
Taste properties compared to Reb A drink ([4]; zero calorie enhanced water drink, 200 ppm Reb X vs 200 ppm Reb A): cleaner in finish and had reduced sweetness linger and a more rounded overall sweetness taste quality
Perceived sweetness compared to Reb A [5, 6]: higher sweetness of Reb X over Reb A is significant
Sweetness onset, non-sweet taste and bitterness lingering compared to Reb A [5, 6]: faster sweetness onset, reduced non-sweet taste (bitterness, sour, astringency) and bitterness lingering
Bitterness, astringency and bitter lingering compared to Reb A ([5]; filtered water, room temperature, 34 panel members, FIG. 11): reduced perception of bitterness, astringency and bitter lingering compared to Reb A
